# From PubChem BioAssay (NCI)
#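 Following 48 hours of exposure in 96-well plates, responses at five concentrations were used to interpolate endpoints linearly. Definition used: TGI = concentration required for complete inhibition of growth.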
# Key:
# Assay in all cases: inhibition of tumour cell growth, NCI panel, 48 h
# MCF7 breast = test system: MCF7 breast
# HT29 colon = test system: HT29 colon
# TK-10 renal = test system: TK-10 renal
# SNB-19 CNS = test system: SNB-19 CNS
# CCRF-CEM leukemia = test system: CCRF-CEM leukemia
# K-562 leukemia = test system: K-562 leukemia
# COLO 205 colon = test system: COLO 205 colon
# PC-3 prostate = test system: PC-3 prostate
# UACC-257 melanoma = test system: UACC-257 melanoma
# SNB-75 CNS = test system: SNB-75 CNS
# MDA-MB-435 = test system: MDA-MB-435
# NCI-H522 lung = test system: NCI-H522 lung
# RXF 393 renal = test system: RXF 393 renal
# A549 NSCLC = test system: A549 NSCLC
# SF-295 CNS = test system: SF-295 CNS
# HL-60(TB) leukemia = test system: HL-60(TB) leukemia
# HOP-62 NSCLC = test system: HOP-62 NSCLC
# SR leukemia = test system: SR leukemia
# BT-549 breast = test system: BT-549 breast
# M14 melanoma = test system: M14 melanoma
# HCT-116 colon = test system: HCT-116 colon
# UO-31 renal = test system: UO-31 renal
# NCI/ADR-RES ovarian = test system: NCI/ADR-RES ovarian
# OVCAR-8 ovarian = test system: OVCAR-8 ovarian
# CAKI-1 renal = test system: CAKI-1 renal
# MALME-3M melanoma = test system: MALME-3M melanoma
# MDA-MB-231 breast = test system: MDA-MB-231 breast
# IGROV1 ovarian = test system: IGROV1 ovarian
# SK-MEL-28 melanoma = test system: SK-MEL-28 melanoma
# HCT-15 colon = test system: HCT-15 colon
# 786-0 renal = test system: 786-0 renal
# NCI-H23 lung = test system: NCI-H23 lung
# DU-145 prostate = test system: DU-145 prostate
# SF-539 CNS = test system: SF-539 CNS
# A498 renal = test system: A498 renal
# MDA-N = test system: MDA-N
# SK-MEL-5 melanoma = test system: SK-MEL-5 melanoma
# SK-OV-3 ovarian = test system: SK-OV-3 ovarian
# EKVX NSCLC = test system: EKVX NSCLC
# LOX IMVI melanoma = test system: LOX IMVI melanoma
# HS 578T breast = test system: HS 578T breast
# ACHN renal = test system: ACHN renal
# MOLT-4 leukemia = test system: MOLT-4 leukemia
# SW-620 colon = test system: SW-620 colon
# SK-MEL-2 melanoma = test system: SK-MEL-2 melanoma
# SN12C renal = test system: SN12C renal
# RPMI-8226 leukemia = test system: RPMI-8226 leukemia
# NCI-H226 lung = test system: NCI-H226 lung
# OVCAR-3 ovarian = test system: OVCAR-3 ovarian
# NCI-H460 lung = test system: NCI-H460 lung
# KM12 colon = test system: KM12 colon
# SF-268 CNS = test system: SF-268 CNS
# OVCAR-5 ovarian = test system: OVCAR-5 ovarian
# U251 CNS = test system: U251 CNS
# UACC-62 melanoma = test system: UACC-62 melanoma
# T-47D breast = test system: T-47D breast
# HOP-92 NSCLC = test system: HOP-92 NSCLC
# OVCAR-4 ovarian = test system: OVCAR-4 ovarian
# LXFL 529 NSCLC = test system: LXFL 529 NSCLC
# M19-MEL melanoma = test system: M19-MEL melanoma
# DLD-1 colon = test system: DLD-1 colon
# HCC-2998 colon = test system: HCC-2998 colon
# DMS 114 small cell lung = test system: DMS 114 small cell lung
# SNB-78 CNS = test system: SNB-78 CNS
# HOP-18 NSCLC = test system: HOP-18 NSCLC
# KM20L2 colon = test system: KM20L2 colon
# DMS 273 small cell lung = test system: DMS 273 small cell lung
smiles,measurement,setting,value
Cn1c(=O)c2[nH]c(COCc3nc4c([nH]3)c(=O)n(C)c(=O)n4C)nc2n(C)c1=O,TGI,MCF7 breast,> 100 µM
same,TGI,HT29 colon,> 100 µM
same,TGI,TK-10 renal,> 100 µM
same,TGI,SNB-19 CNS,> 100 µM
same,TGI,CCRF-CEM leukemia,> 100 µM
same,TGI,K-562 leukemia,> 100 µM
same,TGI,COLO 205 colon,> 100 µM
same,TGI,PC-3 prostate,> 100 µM
same,TGI,UACC-257 melanoma,> 100 µM
same,TGI,SNB-75 CNS,> 100 µM
same,TGI,MDA-MB-435,> 100 µM
same,TGI,NCI-H522 lung,> 100 µM
same,TGI,RXF 393 renal,> 100 µM
same,TGI,A549 NSCLC,> 100 µM
same,TGI,SF-295 CNS,> 100 µM
same,TGI,HL-60(TB) leukemia,> 100 µM
same,TGI,HOP-62 NSCLC,> 100 µM
same,TGI,SR leukemia,> 100 µM
same,TGI,BT-549 breast,> 100 µM
same,TGI,M14 melanoma,> 100 µM
same,TGI,HCT-116 colon,> 100 µM
same,TGI,UO-31 renal,> 100 µM
same,TGI,NCI/ADR-RES ovarian,> 100 µM
same,TGI,OVCAR-8 ovarian,> 100 µM
same,TGI,CAKI-1 renal,> 100 µM
same,TGI,MALME-3M melanoma,> 100 µM
same,TGI,MDA-MB-231 breast,> 100 µM
same,TGI,IGROV1 ovarian,> 100 µM
same,TGI,SK-MEL-28 melanoma,> 100 µM
same,TGI,HCT-15 colon,> 100 µM
same,TGI,786-0 renal,> 100 µM
same,TGI,NCI-H23 lung,> 100 µM
same,TGI,DU-145 prostate,> 100 µM
same,TGI,SF-539 CNS,> 100 µM
same,TGI,A498 renal,> 100 µM
same,TGI,MDA-N,> 100 µM
same,TGI,SK-MEL-5 melanoma,> 100 µM
same,TGI,SK-OV-3 ovarian,> 100 µM
same,TGI,EKVX NSCLC,> 100 µM
same,TGI,LOX IMVI melanoma,> 100 µM
same,TGI,HS 578T breast,> 100 µM
same,TGI,ACHN renal,> 100 µM
same,TGI,MOLT-4 leukemia,> 100 µM
same,TGI,SW-620 colon,> 100 µM
same,TGI,SK-MEL-2 melanoma,> 100 µM
same,TGI,SN12C renal,> 100 µM
same,TGI,RPMI-8226 leukemia,> 100 µM
same,TGI,NCI-H226 lung,> 100 µM
same,TGI,OVCAR-3 ovarian,> 100 µM
same,TGI,NCI-H460 lung,> 100 µM
same,TGI,KM12 colon,> 100 µM
same,TGI,SF-268 CNS,> 100 µM
same,TGI,OVCAR-5 ovarian,> 100 µM
same,TGI,U251 CNS,> 100 µM
same,TGI,UACC-62 melanoma,> 100 µM
same,TGI,T-47D breast,> 100 µM
same,TGI,HOP-92 NSCLC,> 100 µM
same,TGI,OVCAR-4 ovarian,> 100 µM
COC1CC(OS(=O)(=O)c2ccc(C)cc2)C(OS(=O)(=O)c2ccc(C)cc2)C(COS(=O)(=O)c2ccc(C)cc2)O1 (stereo unspecified),TGI,LXFL 529 NSCLC,18.7 µM
same,TGI,HT29 colon,15.1 µM
same,TGI,SNB-19 CNS,5.58 µM
same,TGI,CCRF-CEM leukemia,> 100 µM
same,TGI,K-562 leukemia,> 100 µM
same,TGI,M19-MEL melanoma,20 µM
same,TGI,COLO 205 colon,> 100 µM
same,TGI,UACC-257 melanoma,21 µM
same,TGI,SNB-75 CNS,2.48 µM
same,TGI,NCI-H522 lung,16 µM
same,TGI,RXF 393 renal,4.64 µM
same,TGI,A549 NSCLC,19.3 µM
same,TGI,SF-295 CNS,4.38 µM
same,TGI,HL-60(TB) leukemia,> 100 µM
same,TGI,HOP-62 NSCLC,5.09 µM
same,TGI,SR leukemia,33.6 µM
same,TGI,M14 melanoma,17.8 µM
same,TGI,HCT-116 colon,> 100 µM
same,TGI,UO-31 renal,12.1 µM
same,TGI,OVCAR-8 ovarian,6.06 µM
same,TGI,DLD-1 colon,22.7 µM
same,TGI,CAKI-1 renal,7.7 µM
same,TGI,MALME-3M melanoma,8.57 µM
same,TGI,IGROV1 ovarian,17.2 µM
same,TGI,SK-MEL-28 melanoma,13.4 µM
same,TGI,HCT-15 colon,19 µM
same,TGI,HCC-2998 colon,49.3 µM
same,TGI,786-0 renal,4.06 µM
same,TGI,NCI-H23 lung,15.6 µM
same,TGI,SF-539 CNS,6.65 µM
same,TGI,SK-MEL-5 melanoma,25.7 µM
same,TGI,SK-OV-3 ovarian,8.62 µM
same,TGI,EKVX NSCLC,24.4 µM
same,TGI,ACHN renal,12.7 µM
same,TGI,DMS 114 small cell lung,15.1 µM
same,TGI,MOLT-4 leukemia,> 100 µM
same,TGI,SNB-78 CNS,> 100 µM
same,TGI,HOP-18 NSCLC,8.36 µM
same,TGI,SW-620 colon,57.7 µM
same,TGI,SK-MEL-2 melanoma,20.1 µM
same,TGI,KM20L2 colon,30.9 µM
same,TGI,SN12C renal,20.8 µM
same,TGI,RPMI-8226 leukemia,86 µM
same,TGI,NCI-H226 lung,10.4 µM
same,TGI,OVCAR-3 ovarian,5.62 µM
same,TGI,NCI-H460 lung,24.7 µM
same,TGI,KM12 colon,> 100 µM
same,TGI,SF-268 CNS,3.02 µM
same,TGI,OVCAR-5 ovarian,51.5 µM
same,TGI,U251 CNS,11.6 µM
same,TGI,UACC-62 melanoma,18.6 µM
same,TGI,DMS 273 small cell lung,18.6 µM
same,TGI,OVCAR-4 ovarian,1.12 µM
